Paper PMC4390550 (Journal of the American Chemical Society, 2015)
Counter-ions that a name gives are not always drawn.

How the values were obtained:
infantile spasms = conditions: cited from earlier work
[1] = test system: aspartate aminotransferase; conditions: cited from earlier work
GABA-AT [2] = conditions: aromatization mechanism; cited from earlier work
alanine aminotransferase = conditions: cited from earlier work
GABA-AT [3] = biological target: T1, GABA-AT (Sus scrofa, UniProt P80147); assay: Inhibition of GABA-AT, coupled assay with SSDH, Ki by Cheng-Prusoff; format: biochemical, pig
T1 sequence (P80147 29-500): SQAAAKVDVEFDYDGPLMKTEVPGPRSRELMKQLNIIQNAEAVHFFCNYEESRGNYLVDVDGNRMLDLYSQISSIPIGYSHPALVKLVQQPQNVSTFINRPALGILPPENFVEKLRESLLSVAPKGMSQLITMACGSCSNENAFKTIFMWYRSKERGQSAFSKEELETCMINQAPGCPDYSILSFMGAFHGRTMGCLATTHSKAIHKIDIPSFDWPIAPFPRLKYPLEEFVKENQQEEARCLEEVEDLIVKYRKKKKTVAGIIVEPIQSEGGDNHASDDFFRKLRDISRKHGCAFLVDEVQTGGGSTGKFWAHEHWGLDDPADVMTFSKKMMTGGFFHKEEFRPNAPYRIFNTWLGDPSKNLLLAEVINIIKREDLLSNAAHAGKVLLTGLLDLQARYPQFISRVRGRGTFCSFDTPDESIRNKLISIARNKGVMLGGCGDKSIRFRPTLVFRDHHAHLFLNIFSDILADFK

GABA-AT [4] = biological target: T1, GABA-AT; assay: Time-dependent inhibition; format: biochemical, pig; conditions: preliminary in vitro results

C=CC(N)CCC(=O)O (centres unmarked) [vigabatrin]
time spasms suppression stayed effective (infantile spasms; rat): 1 days

N[C@H]1C=C(C(=O)O)SC1 [(S)-4-Amino-4,5-dihydro-2-thiophenecarboxylic acid]
inactivation of aspartate aminotransferase (in words) [1]: inactivator
inactivation of GABA-AT (in words) (GABA-AT [2]): known inactivator

N[C@H]1C[C@@H](C(=O)O)CC1=C(F)F [Compound 16]
inactivation or inhibition of alanine aminotransferase (alanine aminotransferase): did not inactivate or inhibit
inactivation or inhibition of aspartate aminotransferase [1]: did not inactivate or inhibit
margin of safety (infantile spasms; compared with vigabatrin): much larger margin of safety than vigabatrin
doses that suppressed spasms (infantile spasms; rat): 0.1 to 1 mg/kg/day
effective doses lower than those for vigabatrin (infantile spasms; rat): > 100 fold
time spasms suppression stayed effective (infantile spasms; rat): 3 days

N[C@H]1CC(C(=O)O)S(=O)(=O)C1 (stereo partly drawn) [Compound 19, (4S)-4-Aminotetrahydrothiophene-2-carboxylic acid 1,1-dioxide hydrochloride]
Ki (GABA-AT [3]; reversible inhibition, pH 8.5, 25 °C, 10 mM GABA): 3.2 ± 0.7 mM

N[C@@H]1CC[C@H](C(=O)O)C1 [Compound 39, (1S,3R)-3-aminocyclopentane-1-carboxylic acid]
inactivation of GABA-AT (in words) (GABA-AT [4]): not an inactivator
reversible inhibition of GABA-AT (in words) (GABA-AT [3]; preliminary in vitro results): good competitive inhibitor

Cl.N[C@@H]1CS[C@H](C(=O)O)C1 [Compound 17, (2S,4S)-4-Aminotetrahydrothiophene-2-carboxylic acid hydrochloride]
inactivation of GABA-AT (in words) (GABA-AT [4]): potent inactivators

Cl.N[C@@H]1CS[C@@H](C(=O)O)C1 [Compound 18, (2R,4S)-4-Aminotetrahydrothiophene-2-carboxylic acid hydrochloride]
inactivation of GABA-AT (in words) (GABA-AT [4]): potent inactivators
